“Also recorded” adds a separate entry of the source.
What was measured:
[1] = test system: acute self-limiting colitis in mice; experiment: Gross visual observations of the murine abdomen (Example 3); type: in vivo; conditions: necropsy after 3 days of steroid gavage
Excerpt: Under isoflurane anesthesia, mice were terminally bled by cardiac puncture and then humanely euthanized by cervical dislocation. All collected blood was separated into serum that was dedicated for steroid detection and optimization of steroid detection procedures. Following euthanasia, a midline laparotomy was made and gross observations of the abdominal regions were photo-documented. Approximately 1 cm sections of the cecum, and the most proximal and distal portions of the colon were divided for histological examination. Cecal and colonic tissues were flash frozen in liquid nitrogen for future immunological protein quantification. Digesta extracted from the colon was stored at −80° C. for future steroid detection, and fresh feces from the cages were used to enumerate Bacteroides ovatus and Citrobacter rodentium by microbiological techniques on the same day as the necropsy.

[2] = test system: acute self-limiting colitis in mice; experiment: Histological scoring of inflammation, C. rodentium colitis in mice with normal enteric microbiota (Example 7); type: in vivo; conditions: CR+/BO+ mice; prednisolone forms 1 mg/kg, dexamethasone forms 1.5 mg/kg (equivalent); one day following steroid treatment
Protocol: Approval to conduct this project was obtained from the AAFC LeRDC Animal Care Committee (Animal Use Protocol 1911). […] The methods employed were essentially the same as those described in Example 3, except that the Citrobacter rodentium (CR) was administered to incite acute self-limiting colitis in mice prior to colonization with Bacteroides ovatus (BO). […] FIG. 20 provides a schematic illustrating the study design and timelines.
As in the study described in Example 3, there were gross histopathological differences in the distal colon tissue obtained from mice in the different treatment groups. Histological scoring of inflammation was performed by a board-certified pathologist blinded to treatment. […] Following CR infection, with no treatment, neutrophil infiltration was evident and the histological score was 10. […] Evidence of enhanced amelioration of protein markers of inflammation were also observed. […] IL-12p70 is a pro-inflammatory cytokine involved in cell-mediated immunity. For example, it is known as a T cell-stimulating factor, which can stimulate the growth and function of T cells. Moreover, it stimulates the production of interferon-gamma (IFN-γ) and tumor necrosis factor-alpha (TNF-α) from T cells and natural killer (NK) cells, and reduces IL-4 mediated suppression of IFN-γ.

[3] = Dissolution of steroid in sterile water for gavage; type: physicochemical; conditions: dose in 100 μL gavage volume
Protocol: The average weight of the mice (27.9 g) was calculated on the second day of the Citrobacter rodentium infection, and this average weight was used to calculate the steroid concentrations for all treatments. The steroids were dissolved as best as possible in sterile water, and stored at 4° C. until needed. Steroids were administered by gavage in […] for 3 consecutive days at the same time each morning (24 hrs between treatments) for the final 3 days of the C. rodentium infection. Mice in the control groups (without drug intervention) received water by gavage in 100 μL volumes. Gavage needles for drug administration were coated in sucrose solution (1 g/mL, syringe-filter sterilized) as a refinement procedure.

[4] = test system: acute self-limiting colitis in mice; experiment: Histological scoring of inflammation, C. rodentium colitis in germ-free mice colonized with B. ovatus (Example 3); type: in vivo; conditions: n=2; for Crypt Height / Epithelia Hyperplasia / Epithelial Injury / Fibrosis / Globlet cell / Inflamm / Mitotic Act.: gavage 3 days, prednisolone forms 1 mg/kg/day, dexamethasone forms 0.6 mg/kg/day; for Total Score: sum of each scoring category

C[C@]12C=CC(=O)C=C1CC[C@@H]1[C@@H]2[C@@H](O)C[C@@]2(C)[C@H]1CC[C@]2(O)C(=O)CO [prednisolone, reference compound]
blood present in ceca (gross observation) [1]: more blood present in ceca than dexamethasone treatment; also recorded: more blood in cecal area
histological score, distal colon [2]: 18
dissolution in water [3]: did not fully dissolve in water
Crypt Height ([4]; cecal tissue): 1.5
Epithelia Hyperplasia ([4]; cecal tissue): 1.5
Epithelial Injury ([4]; cecal tissue): 1
Fibrosis ([4]; cecal tissue): 1
Globlet cell ([4]; cecal tissue): 0.5
Inflamm ([4]; cecal tissue): 1.5
Mitotic Act. ([4]; cecal tissue): 1
Total Score ([4]; cecal tissue): 8
Crypt Height ([4]; distal colon): 1.5
Epithelia Hyperplasia ([4]; distal colon): 1.5
Epithelial Injury ([4]; distal colon): 2
Fibrosis ([4]; distal colon): 1.5
Globlet cell ([4]; distal colon): 0.5
Inflamm ([4]; distal colon): 1.5
Mitotic Act. ([4]; distal colon): 1.5
Total Score ([4]; distal colon): 10
Crypt Height ([4]; proximal colon): 2
Epithelia Hyperplasia ([4]; proximal colon): 1.5
Epithelial Injury ([4]; proximal colon): 2
Fibrosis ([4]; proximal colon): 0
Globlet cell ([4]; proximal colon): 0.5
Inflamm ([4]; proximal colon): 1.5
Mitotic Act. ([4]; proximal colon): 1.5
Total Score ([4]; proximal colon): 9

— patent publication US20220184220A1, “XYLOGLUCAN-CONTAINING PRODRUGS AND METHODS OF MANUFACTURE AND USE THEREOF” (priority 2019, published 2022)
